This note sets out measurements from patent publication US4874752A, “Benzoquinone derivatives and production thereof” (Takeda Chemical Industries, Ltd., priority 1982, dated 1989).

The assay has as its target T1, protocollagen-proline hydroxylase (Gallus gallus, UniProt P16924).
T1 construct: partially purified enzyme preparation obtained from chick embryos; from tissue; host or cells: chick embryos (partially purified enzyme)
T1 sequence (P16924 1-516): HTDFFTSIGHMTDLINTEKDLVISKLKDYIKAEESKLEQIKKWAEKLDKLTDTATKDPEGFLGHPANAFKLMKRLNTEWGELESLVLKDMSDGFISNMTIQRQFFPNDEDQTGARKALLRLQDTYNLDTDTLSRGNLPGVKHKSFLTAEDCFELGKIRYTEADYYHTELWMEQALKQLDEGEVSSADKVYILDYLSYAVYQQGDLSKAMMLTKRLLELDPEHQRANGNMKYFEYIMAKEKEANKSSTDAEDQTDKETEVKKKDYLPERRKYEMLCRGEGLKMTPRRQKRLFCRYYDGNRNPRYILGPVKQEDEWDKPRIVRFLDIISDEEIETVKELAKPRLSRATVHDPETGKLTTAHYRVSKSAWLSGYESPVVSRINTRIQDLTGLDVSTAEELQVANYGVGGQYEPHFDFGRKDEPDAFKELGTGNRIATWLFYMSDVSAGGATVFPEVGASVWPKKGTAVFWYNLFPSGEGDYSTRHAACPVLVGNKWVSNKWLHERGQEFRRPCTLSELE
T1 sequence (P09102 23-515 partner): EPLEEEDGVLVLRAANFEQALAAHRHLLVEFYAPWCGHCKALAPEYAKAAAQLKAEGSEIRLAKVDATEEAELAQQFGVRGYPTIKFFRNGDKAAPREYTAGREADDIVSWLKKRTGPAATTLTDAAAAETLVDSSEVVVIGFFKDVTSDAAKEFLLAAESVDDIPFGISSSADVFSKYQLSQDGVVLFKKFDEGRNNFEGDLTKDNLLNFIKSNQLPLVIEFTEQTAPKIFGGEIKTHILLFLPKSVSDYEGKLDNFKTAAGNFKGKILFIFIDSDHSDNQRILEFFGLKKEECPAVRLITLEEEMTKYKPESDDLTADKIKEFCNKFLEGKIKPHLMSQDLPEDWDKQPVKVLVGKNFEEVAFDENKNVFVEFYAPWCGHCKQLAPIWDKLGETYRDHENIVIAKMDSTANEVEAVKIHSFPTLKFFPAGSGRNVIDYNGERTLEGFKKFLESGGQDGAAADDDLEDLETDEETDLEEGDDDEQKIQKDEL
Description: Inhibitory activity of protocollagen-proline hydroxylase. It counts as biochemical, chick embryos. The following applies: for inhibition at 10 µM / Inhibition of protocollagen-proline hydroxylase: 10 μM. The text has this: Determination of this inhibitory activity was made by the method of R. E. Rhoads et al. [Methods in Enzymology XVII B, 306 (1971)] using a partially purified enzyme preparation obtained from chick embryos in accordance with the methods of K. I. Kivirriko et al. and J. Halme et al. [J. Biol, Chem. 242, 4007 (1967) and Biochim. Biophys. Acta 198, 460 (1967)] and, as a substrate, (Pro-Pro-Gly)5.4H2 O[prepared by the Protein Research Foundation, Osaka]. In this procedure, the partially purified enzyme was used in an amount of 100 μg as protein.

Counter-ions that a name gives are not always drawn.

For `COC1=C(OC)C(=O)C(CCCCCCCCCC(=O)N2CSCC2C(=O)O)=C(C)C1=O` (stereo not drawn), the inhibition (in general, the change of the read-out against control, counted positive when it falls) at 20 µM was 35%.

As for `COC1=C(OC)C(=O)C(CN2CCOCC2)=C(C)C1=O`, testing at 20 µM gave an inhibition of 78%.

Turning to `COC1=C(OC)C(=O)C(CCCCCCCCCCN2CCOCC2)=C(C)C1=O`, the inhibition at 25 µM (25 μM) worked out at 30%.

The compound `COC1=C(OC)C(=O)C(CCOc2ccc(/C=C/C(=O)O)cc2)=C(C)C1=O` showed an inhibition at 2.5 µM of 62%, an inhibition at 5 µM of 72%, an inhibition at 10 µM of 99.9% and an inhibition at 20 µM of 100%. In addition, at 50 µM the inhibition was 100%.

Regarding `COC1=C(OC)C(=O)C(CCOc2ccc(CC(=O)O)cc2)=C(C)C1=O`, testing at 2.5 µM gave an inhibition of 64%, 5 µM produced 74% inhibition, the “Inhibition of protocollagen-proline hydroxylase” value came to 82% and the inhibition at 10 µM was determined as 100%. This compound returned an inhibition at 20 µM of 100% and an inhibition at 50 µM of 100%.

For the compound `COC1=C(OC)C(=O)C(COc2ccc(C(C)C(=O)O)cc2)=C(C)C1=O` (stereo not drawn), 2.5 µM produced 70% inhibition, the inhibition at 5 µM came to 75%, the “Inhibition of protocollagen-proline hydroxylase” value came to 92% and the inhibition at 10 µM turned out to be 100%. The compound further returned an inhibition at 20 µM of 100% and an inhibition at 50 µM of 100%.

The compound `COC(=O)/C=C/C=C/C=C/C=C/C1=C(C)C(=O)C(OC)=C(OC)C1=O` came in with an inhibition at 10 µM of 38%, an inhibition at 20 µM of 67% and an inhibition at 50 µM of 76%.

`COC1=C(OC)C(=O)C(c2nc3cc(C(C)C(=O)O)ccc3o2)=C(C)C1=O` (stereo not drawn) yielded an inhibition at 10 µM of 54%, an inhibition at 20 µM of 76% and an inhibition at 50 µM of 84%.

As to `COC1=C(OC)C(=O)C(CC=C(C)COc2ccc(CC(=O)O)cc2)=C(C)C1=O` [drawing 20], the inhibition at 10 µM stood at 34%, the inhibition at 20 µM is 48% and the inhibition at 50 µM came out at 92%.

`COC1=C(OC)C(=O)C(/C=C/C(=O)O)=C(C)C1=O` [drawing 25] came in with an inhibition at 2.5 µM of 0%, an inhibition at 5 µM of 22%, an inhibition at 10 µM of 37% and an inhibition at 20 µM of 46%. The compound further had an inhibition at 50 µM of 68%.

Turning to `COC1=C(OC)C(=O)C(/C=C/C(C)=O)=C(C)C1=O` [drawing 26], 2.5 µM produced 51% inhibition, the inhibition at 5 µM was 72%, the inhibition at 10 µM was 85% and the inhibition at 20 µM turned out to be 92%. The same compound had an inhibition at 50 µM of 92%.

`COC1=C(OC)C(=O)C(CCC(=O)N[C@@H](CCCNC(=N)N)C(=O)O)=C(C)C1=O` [m:0, n:2, Z:COArg (salt of acetic acid), 3-(2,3-dimethoxy-5-methyl-1,4-benzoquinon-6-yl)propionyl-L-arginine] gave an inhibition at 20 µM of 56%.

Regarding `COC1=C(OC)C(=O)C(CCC(=O)N[C@@H](CCC(=O)O)C(=O)O)=C(C)C1=O` [m:0, n:2, Z:COGlu, 3-(2,3-dimethoxy-5-methylbenzoquinon-6-yl)propionyl-L-glutamic acid], the inhibition at 20 µM worked out at 20%.

The compound `COC1=C(OC)C(=O)C(CCC(=O)NCC(=O)O)=C(C)C1=O` [m:0, n:2, Z:COGly, 3-(2,3-dimethoxy-5-methyl-1,4-benzoquinone-6-yl)propionyl-glycine] came in with an inhibition at 20 µM of 46%.

Take `COC1=C(OC)C(=O)C(CCC(=O)N2CCC[C@H]2C(=O)O)=C(C)C1=O` [m:0, n:2, Z:COPro, 3-(2,3-dimethoxy-5-methyl-1,4-benzoquinon-6-yl)propionyl-L-proline]: the inhibition at 20 µM came to 35%.

Compound `COC1=C(OC)C(=O)C(CCC(=O)N[C@@H](Cc2ccc(O)cc2)C(=O)O)=C(C)C1=O` [m:0, n:2, Z:COTyr, 3-(2,3-dimethoxy-5-methyl-1,4-benzoquinon-6-yl)propionyl-L-tyrosine] showed an inhibition at 20 µM of 35%.

Regarding `COC1=C(OC)C(=O)C(CCC(=O)N[C@@H](C)C(=O)O)=C(C)C1=O` [m:0, n:2, Z:CoAla, 3-(2,3-dimethoxy-5-methyl-1,4-benzoquinon-6-yl)propionyl-L-alanine], at 20 µM the inhibition was 32%.

Consider `COC1=C(OC)C(=O)C(CCCCCCCCCC(=O)N[C@@H](CCCNC(=N)N)C(=O)O)=C(C)C1=O` [m:0, n:9, Z:COArg (salt of acetic acid), 10-(2,3-dimethoxy-5-methyl-1,4-benzoquinon-6-yl)decanoyl-L-arginine], for which the inhibition at 20 µM was found to be 52%.

Regarding `COC1=C(OC)C(=O)C(CCCCCCCCCC(=O)N[C@H]2C(O)O[C@H](CO)[C@@H](O)[C@@H]2O)=C(C)C1=O` (stereo partly drawn) [m:0, n:9, Z:COGlcN, N-[10-(2,3-dimethoxy-5-methyl-1,4-benzoquinon-6-yl)decanoyl]glucosamine], the inhibition at 20 µM worked out at 52%.

Compound `COC1=C(OC)C(=O)C(CCCCCCCCCC(=O)NC(CCC(=O)O)C(=O)O)=C(C)C1=O` (stereo not drawn) [m:0, n:9, Z:COGlu] yielded an inhibition at 20 µM of 37%.

Compound `COC1=C(OC)C(=O)C(CCCCCCCCCC(=O)N[C@@H](Cc2c[nH]cn2)C(=O)O)=C(C)C1=O` [m:0, n:9, Z:COHis, 10-(2,3-dimethoxy-5-methyl-1,4-benzoquinon-6-yl)decanoyl-L-histidine] returned an inhibition at 20 µM of 52%.

For the compound `COC1=C(OC)C(=O)C(CCCCCCCCCC(=O)N[C@@H](CCCCN)C(=O)O)=C(C)C1=O` [m:0, n:9, Z:COLys, 10-(2,3-dimethoxy-5-methyl-1,4-benzoquinon-6-yl)decanoyl-L-lysine], the inhibition at 20 µM was 25%.

With `COC1=C(OC)C(=O)C(CCCCCCCCCC(=O)N[C@@H](CCSC)C(=O)O)=C(C)C1=O` [m:0, n:9, Z:COMet, 10-(2,3-dimethoxy-5-methyl-1,4-benzoquinon-6-yl)decanoyl-L-methionine], the inhibition at 20 µM was 38%.

In the case of `COC1=C(OC)C(=O)C(CCCCCCCCCC(=O)OC[C@H]2OC(O)[C@H](NC(C)=O)[C@@H](O[C@H](C)C(=O)O)[C@@H]2O)=C(C)C1=O` (stereo partly drawn) [m:0, n:9, Z:COMurNAc, N-acetyl-6O-[10-(2,3-dimethoxy-5-methyl-1,4-benzoquinon-6-yl)decanoyl]muraminic acid], at 20 µM the inhibition was 32%.

As to `COC1=C(OC)C(=O)C(CCCCCCCCCC(=O)N[C@H](Cc2ccccc2)C(=O)O)=C(C)C1=O` [m:0, n:9, Z:COPhe, 10-(2,3-dimethoxy-5-methyl-1,4-benzoquinon-6-yl)decanoyl-D-phenylalanine], testing at 20 µM gave an inhibition of 35%.

Compound `COC1=C(OC)C(=O)C(CCCCCCCCCC(=O)N[C@@H](Cc2c[nH]c3ccccc23)C(=O)O)=C(C)C1=O` [m:0, n:9, Z:COTrp, 10-(2,3-dimethoxy-5-methyl-1,4-benzoquinon-6-yl)decanoyl-L-tryptophan] registered an inhibition at 20 µM of 15%.
